Reference: US20260265703A1, “DEGRON FUSION PROTEINS AND METHODS OF PRODUCTION AND USE THEREOF” (BlueRock Therapeutics LP, priority 2023, published 2026)

Assays:
GAPDH expression = assay: qPCR of GAPDH expression in gene-edited iPSC clones; assay type: cell-based; conditions: 3 μM POM for up to 3 days; three degron clones and one superdegron clone
[1] = test system: unedited parental cells (iPSCs); assay: Growth of unedited parental iPSCs under POM; assay type: cell-based; conditions: 0.5 μM POM for 5 days
Protocol: The same gene-edited iPSC clones in Example 4 were treated with 0.5 μM POM for 5 days to determine if there were any differences between the survival rates.

[2] = test system: dopaminergic (DA) neurons differentiated from gene-edited iPSC clones (degron linked to GAPDH); assay: Annexin V Incucyte cell death of DA neurons differentiated from gene-edited iPSCs; assay type: cell-based
Protocol: (§1) In order to determine the applicability of the degron-comprising targeting constructs to differentiated cells, unedited parental iPSCs and gene-edited iPSC clones B and C were differentiated into dopaminergic (DA) neurons as depicted in FIG. 13. The differentiation protocol was adapted from Kriks et al., 2011, Nature 480 (7378): 547-551 and U.S. Pat. No. 10,711,243, which are hereby incorporated by reference in their entireties. Cell death was assessed post-thaw after cells were plated down in the presence and absence of various concentrations of POM. Annexin V dye was used to quantify cell death in an Incucyte imager over a period of 5 days.
(§2) Cells were differentiated from iPSCs into DA neurons using the same protocol as depicted in FIG. 13. DA neurons were plated and stained with Annexin V dye and cell death was measured using an Incucyte Imager over a period of 144 hours.

[3] = test system: iPSCs transfected with degron or superdegron GAPDH targeting constructs; assay: Linker length: amplicon depletion after POM relative to untreated cells; assay type: cell-based; conditions: 3 μM POM; construct with 3 aa linker and degron
Description: (§3) Two sets of targeting constructs were generated as described in Section 8.1. The first set of targeting constructs were designed to comprise a linker, a degron or superdegron sequence, an IRES sequence, and a GFP transgene sequence flanked by GAPDH homology arms as depicted in FIGS. 7G-7J, wherein the linker lengths were 3 aa (linker 1, GGS), 15 aa (linker 2, SEQ ID NO:23), 27 aa (linker 3, SEQ ID NO:103) and 10 aa (linker 4, SEQ ID NO:15). The second set of targeting constructs were designed to comprise a linker and a degron or superdegron sequence flanked by GAPDH homology arms as depicted in FIGS. 7A-7D. For both sets, the homology arms were designed to enable integration of the construct in the endogenous GAPDH locus, immediately 5′ of the GAPDH endogenous STOP codon. iPSCs were transfected with each construct individually.
Next, the iPSCs transfected with the second set of targeting constructs were evaluated, wherein amplicon depletion was assessed following POM treatment relative to untreated cells. […] Taken together, targeting construct linker length and degron type might be key factors to trigger cell death in gene-edited cells.

[4] = test system: gene-edited iPSC clones (degron or superdegron linked to GAPDH); assay type: cell-based
[5] = target: degron-fused GAPDH protein (Homo sapiens, UniProt P04406+Q96SW2); conditions: one day treatment with 3 μM POM; degron and superdegron iPSC clones
Chain of degron-fused GAPDH protein (P04406 other isoform, or with tags, fused parts or gaps): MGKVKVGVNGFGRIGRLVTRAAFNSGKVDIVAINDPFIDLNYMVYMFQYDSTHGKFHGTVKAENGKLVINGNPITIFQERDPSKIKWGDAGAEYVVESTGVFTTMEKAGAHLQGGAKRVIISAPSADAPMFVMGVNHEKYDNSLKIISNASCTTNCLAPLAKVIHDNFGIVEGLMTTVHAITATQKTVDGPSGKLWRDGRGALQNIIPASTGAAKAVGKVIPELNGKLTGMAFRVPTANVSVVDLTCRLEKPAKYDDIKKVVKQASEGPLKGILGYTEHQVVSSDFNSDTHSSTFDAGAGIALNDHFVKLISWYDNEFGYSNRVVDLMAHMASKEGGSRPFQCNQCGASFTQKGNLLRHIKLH
Chain of degron-fused GAPDH protein (Q96SW2 whole entry, the tested form may be a part): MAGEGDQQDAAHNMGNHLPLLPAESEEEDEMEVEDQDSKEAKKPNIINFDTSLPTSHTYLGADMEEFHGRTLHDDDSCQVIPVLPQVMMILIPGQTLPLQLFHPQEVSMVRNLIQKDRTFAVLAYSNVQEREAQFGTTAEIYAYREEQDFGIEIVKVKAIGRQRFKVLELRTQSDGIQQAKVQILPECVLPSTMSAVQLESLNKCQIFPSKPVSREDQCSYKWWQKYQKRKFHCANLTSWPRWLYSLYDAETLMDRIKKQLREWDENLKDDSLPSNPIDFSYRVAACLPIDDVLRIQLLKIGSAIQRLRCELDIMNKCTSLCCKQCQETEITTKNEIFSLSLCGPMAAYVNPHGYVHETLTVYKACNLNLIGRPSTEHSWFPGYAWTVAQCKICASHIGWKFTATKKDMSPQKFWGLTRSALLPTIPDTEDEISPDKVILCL
Chain of degron-fused GAPDH protein (Q16531 whole entry, further chain, the tested form may be a part): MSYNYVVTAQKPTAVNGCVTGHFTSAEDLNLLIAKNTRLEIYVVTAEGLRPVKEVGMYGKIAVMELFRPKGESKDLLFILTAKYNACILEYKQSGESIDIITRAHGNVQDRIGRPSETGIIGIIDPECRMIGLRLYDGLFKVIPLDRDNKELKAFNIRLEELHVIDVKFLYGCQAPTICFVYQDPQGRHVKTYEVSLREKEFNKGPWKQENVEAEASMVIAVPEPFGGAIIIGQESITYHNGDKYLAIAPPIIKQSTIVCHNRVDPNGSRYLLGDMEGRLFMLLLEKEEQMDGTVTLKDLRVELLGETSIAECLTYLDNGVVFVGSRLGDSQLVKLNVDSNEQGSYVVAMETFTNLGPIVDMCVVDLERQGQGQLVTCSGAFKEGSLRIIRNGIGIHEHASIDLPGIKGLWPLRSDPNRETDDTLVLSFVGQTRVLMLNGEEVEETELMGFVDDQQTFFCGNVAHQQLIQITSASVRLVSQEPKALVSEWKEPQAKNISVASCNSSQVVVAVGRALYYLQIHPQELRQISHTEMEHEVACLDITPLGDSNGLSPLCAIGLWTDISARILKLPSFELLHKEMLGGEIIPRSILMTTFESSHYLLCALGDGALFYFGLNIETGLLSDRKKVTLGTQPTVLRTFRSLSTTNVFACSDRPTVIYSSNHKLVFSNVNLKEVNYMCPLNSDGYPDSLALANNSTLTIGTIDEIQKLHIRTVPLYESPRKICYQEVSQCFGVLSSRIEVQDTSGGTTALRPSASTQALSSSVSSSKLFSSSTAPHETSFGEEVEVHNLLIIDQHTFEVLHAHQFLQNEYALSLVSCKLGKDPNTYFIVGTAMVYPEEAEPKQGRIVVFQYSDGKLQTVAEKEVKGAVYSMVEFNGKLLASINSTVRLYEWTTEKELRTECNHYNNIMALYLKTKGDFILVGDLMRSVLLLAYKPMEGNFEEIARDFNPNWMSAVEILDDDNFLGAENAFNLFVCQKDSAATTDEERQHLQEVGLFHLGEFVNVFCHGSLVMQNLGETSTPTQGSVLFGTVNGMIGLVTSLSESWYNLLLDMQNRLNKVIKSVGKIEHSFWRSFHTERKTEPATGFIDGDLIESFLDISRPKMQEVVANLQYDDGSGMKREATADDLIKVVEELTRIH
Protocol: To determine whether gene-editing of iPSCs with a targeting construct, wherein the homology arms of which enable its integration in the endogenous GAPDH locus, affects the expression of GAPDH, three clones bi-allelically modified with a targeting construct comprising a 3 aa linker, GGS and a degron (as depicted in FIG. 7G) and one clone bi-allelically modified with superdegron-comprising targeting construct (as depicted in FIG. 7J) were treated with 3 μM POM for up to 3 days.

[6] = test system: pool of iPSCs transfected with degron or superdegron GAPDH IRES-GFP targeting constructs; assay: Linker length: flow cytometry of GFP signal depletion in transfected iPSC pools; assay type: cell-based; conditions: 3 μM POM for 4 days
Description: as §3
A pool of iPSCs transfected with the first set of targeting constructs, potentially comprising both mono-allelically and bi-allelically gene edited iPSCs, were evaluated using flow cytometry, wherein the depletion of GFP signal was assessed following treatment with 3 μM POM for 4 days. Among gene-edited iPSCs, those that were transfected with the superdegron-comprising targeting construct had the lowest percentage of GFP-positive cells, whereas approximately ⅓ to ½ of […] cells transfected with one of the degron-comprising targeting constructs were GFP-positive.

[7] = test system: iPSC clone bi-allelically modified with a degron fused to GAPDH and IRES-GFP; assay: Incucyte live cells/well of a bi-allelically modified iPSC clone under POM; assay type: cell-based; conditions: 1 μM POM
Description: The percentage of live cells/well was quantified at several timepoints using the Incucyte software and normalized for the number of live cells/well at the first image timepoint.

[8] = test system: DA neurons derived from unedited parental iPSCs; assay: Annexin V Incucyte cell death of DA neurons derived from unedited parental iPSCs; assay type: cell-based
Protocol: as §1, §2

[9] = test system: unedited cells (GFP-negative) iPSCs; assay: Effect of POM on unedited cells in the mixture with gene-edited iPSCs; assay type: cell-based; conditions: 3 μM POM for 6d; heterogenous mixture
Protocol: (§4) Functionality of the kill switch was tested in iPSCs using the targeting construct depicted in FIG. 7G, which comprises a linker, a degron sequence, an IRES, and a GFP transgene sequence flanked by GAPDH homology arms. On the day of Nucleofection, iPSCs were harvested and resuspended in Lonza P3 primary cell nucleofection buffer. Ribonucleoproteins (RNPs) were complexed with sgRNAs using 1:2 ratio of protein:sgRNA (IDT). Nucleofection of complexed RNP together with a targeting construct into resuspended iPSCs was accomplished using LONZA 4D Nucleofector. The Nucleofected cells were then plated and assessed for targeting events.
(§5) A heterogenous mixture of unedited cells (GFP-negative) and cells edited with a construct depicted in FIG. 7G, comprising a degron fused to GAPDH as well as GFP (GFP-positive) were treated with 3 μM pomalidomide (POM) for 6d or fed with complete medium without POM (untreated).

[10] = test system: myeloid progenitor (MP) cells differentiated from unedited parental iPSCs; assay: AO/PI Incucyte cell death of myeloid progenitor cells from unedited parental iPSCs; assay type: cell-based; conditions: 1 μM POM; 108 hours
Description: (§6) To expand the applicability of the degron-comprising constructs to additional differentiated cell types, unedited parental iPSCs and biallelically gene-edited iPSC clones A, B, and C comprising targeting construct as depicted in FIG. 7G were differentiated into myeloid progenitor (MP) cells as depicted in FIG. 17. The differentiation protocol was adapted from Douvaras et al., 2017 Jun. 6; 8 (6): 1516-1524 and PCT publication nos. WO 2023/150089 A1 and WO 2017/152081 A1, which are hereby incorporated by reference in their entireties. Cell death was assessed post-thaw after MP cells were plated down in the presence and absence of POM. Acridine Orange/Propidium Iodine (AO/PI) dye was used to quantify cell death in an Incucyte Imager over a period of 108 hours.

[11] = test system: iPSCs edited with a construct comprising a degron fused to GAPDH as well as GFP (GFP-positive); assay: Depletion of GFP-positive gene-edited iPSCs in a mixture with unedited cells after POM; assay type: cell-based; conditions: 3 μM POM for 6d; heterogenous mixture; FIG. 7G construct
Protocol: as §4, §5

[12] = test system: myeloid progenitor (MP) cells differentiated from biallelically gene-edited iPSC clones A, B, and C; assay: AO/PI Incucyte cell death of myeloid progenitor cells differentiated from gene-edited iPSCs; assay type: cell-based; conditions: 1 μM POM, 108 hours
Description: as §6

SMILES: Nc1cccc2c1C(=O)N(C1CCC(=O)NC1=O)C2=O (stereo not shown) [POM, pomalidomide]
- GAPDH expression by qPCR, untreated vs POM-treated gene-edited cells (GAPDH expression): No large differences in GAPDH expression
- growth of unedited parental cells [1]: did not affect the growth of unedited parental cells
- POM concentration giving nearly complete cell death ([2]; Clone A or Clone C, by 144 hours, range 0.01 μM to 100 μM): 0.1 µM
- POM concentration giving complete killing (lowest concentration evaluated) ([2]; DA neurons derived from clone B, 5-day treatment): 10 nM
- death of neurons at all POM concentrations evaluated ([2]; clone B and clone C, by day 5, 0.13 μM-1 μM POM): complete death of all neurons
- amplicon depletion relative to untreated cells [3]: associated with amplicon depletion
- killing of gene-edited iPSCs ([4]; 0.5 μM POM for 5 days, degron and superdegron clones of Example 4): complete killing of all gene-edited iPSCs
- POM concentration sufficient to achieve complete killing ([4]; degron construct, monitored 5 days, range 0.03125 μM to 10 μM): 0.5 µM
- POM concentration able to trigger apoptosis ([4]; degron construct, monitored 5 days, range 0.03125 μM to 10 μM, data not shown): 0.25 µM
- lowest POM concentration evaluated, associated with apoptosis of all cells ([4]; superdegron construct, monitored 5 days): 0.03125 µM
- GAPDH protein by western blot [5]: completely depleted
- depletion of GFP-positive cells ([6]; degron construct with the shortest linker (3 aa, GGS)): depleted GFP-positive cells
- depletion of GFP-positive cells ([6]; degron constructs with 15 aa and 27 aa linkers (no depletion implied)): only if they were transfected with the degron-comprising targeting construct with the shortest linker or the superdegron-comprising targeting construct
- depletion of GFP-positive cells ([6]; superdegron construct (10 aa linker)): depleted GFP-positive cells
- elimination of gene edited cells ([7]; 92 hours after addition): completely eliminated
- time after addition of POM at which cell death rate surpassed proliferation rate ([7]; bi-allelic FIG. 7G clone, Incucyte): around 24 hours
- cell death at any POM concentration tested ([8]; 0.01 μM to 100 μM POM, 144 hours): No differences in cell death
- neuronal death with vs without POM ([8]; various POM concentrations, 5 days): No differences in neuronal death
- effect on unedited cells [9]: did not affect unedited cells
- cell death of unedited parental MP line [10]: no increase in cell death
- effect on the population of edited GFP-positive cells [11]: depleted the population of edited GFP-positive cells
- cell death of gene-edited MP clones [12]: died in response to POM
